We go through 13 compounds from ChEMBL document CHEMBL1909046, “DrugMatrix in vitro pharmacology data”.

The target of assay [1] is cGMP-specific 3',5'-cyclic phosphodiesterase (Homo sapiens, UniProt O76074). Nature of the assay: DRUGMATRIX: Phosphodiesterase PDE5 enzyme inhibition (substrate: [3H]cGMP + cGMP). The assay is classed as tissue-based. As to conditions: platelet; Not Active = under 50% inhibition at 10 µM.
The nature of assay [2]: DRUGMATRIX: Nicotinic Acetylcholine radioligand binding (ligand: [125I] Epibatidine). The assay is classed as cell membranes, Membrane. The note with it: imr-32; Not Active = under 50% inhibition at 10 µM.
Assay [3] in a line: DRUGMATRIX: Interleukin IL-1 radioligand binding (ligand: [125I] interleukin 1beta). Format: cell membranes, Membrane. As to conditions: nih3t3; Not Active = under 50% inhibition at 10 µM.
Assay [4] in a line: DRUGMATRIX: Glutamate, Kainate radioligand binding (ligand: [3H] Kainic acid). Format: cell membranes, Rattus norvegicus, Wistar, Brain, Membrane. The note with it: Not Active = under 50% inhibition at 10 µM.
The target in assay [5] is Prostaglandin G/H synthase 1 (Homo sapiens, UniProt P23219). Briefly: biochemical. The assay is classed as tissue-based, Platelet.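 Also: inhibition of COX-1 enzyme activity, with arachidonic acid supplied as substrate; in other assays of this panel Not Active means under 50% inhibition at 10 µM.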
Assay [6] deals with T1, Nitric oxide synthase, inducible (Mus musculus, UniProt P29477).
T1 sequence (P29477 whole entry): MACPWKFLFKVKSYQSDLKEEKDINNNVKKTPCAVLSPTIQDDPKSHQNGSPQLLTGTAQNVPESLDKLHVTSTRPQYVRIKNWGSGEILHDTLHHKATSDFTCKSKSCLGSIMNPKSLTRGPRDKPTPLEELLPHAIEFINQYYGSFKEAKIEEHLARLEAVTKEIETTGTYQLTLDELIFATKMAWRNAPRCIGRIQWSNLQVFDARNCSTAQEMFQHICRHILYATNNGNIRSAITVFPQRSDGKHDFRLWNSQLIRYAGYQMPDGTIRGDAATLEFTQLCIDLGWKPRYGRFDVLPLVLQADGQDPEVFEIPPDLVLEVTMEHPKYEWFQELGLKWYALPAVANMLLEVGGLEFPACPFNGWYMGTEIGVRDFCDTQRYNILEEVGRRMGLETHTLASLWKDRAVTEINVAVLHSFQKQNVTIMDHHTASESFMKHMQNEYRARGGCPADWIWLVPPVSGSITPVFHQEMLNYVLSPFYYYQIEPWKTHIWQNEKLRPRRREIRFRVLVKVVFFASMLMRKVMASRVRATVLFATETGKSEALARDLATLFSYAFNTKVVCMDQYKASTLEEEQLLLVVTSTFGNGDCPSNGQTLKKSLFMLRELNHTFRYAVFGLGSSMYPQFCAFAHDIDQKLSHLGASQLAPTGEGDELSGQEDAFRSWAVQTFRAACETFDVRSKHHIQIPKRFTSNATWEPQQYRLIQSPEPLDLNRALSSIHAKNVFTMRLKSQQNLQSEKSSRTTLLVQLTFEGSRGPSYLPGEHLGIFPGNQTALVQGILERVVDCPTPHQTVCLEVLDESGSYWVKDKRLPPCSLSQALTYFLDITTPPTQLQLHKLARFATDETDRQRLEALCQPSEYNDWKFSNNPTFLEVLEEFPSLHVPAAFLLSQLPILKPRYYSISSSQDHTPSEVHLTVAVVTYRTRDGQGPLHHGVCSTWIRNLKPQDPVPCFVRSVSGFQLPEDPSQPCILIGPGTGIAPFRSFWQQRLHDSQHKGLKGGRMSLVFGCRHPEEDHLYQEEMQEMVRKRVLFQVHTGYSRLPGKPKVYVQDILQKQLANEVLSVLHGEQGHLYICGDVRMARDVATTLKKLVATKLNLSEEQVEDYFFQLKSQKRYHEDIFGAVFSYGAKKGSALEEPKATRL
Details: species or system Escherichia coli.

In assay [7] the target is T2, 3-hydroxy-3-methylglutaryl-coenzyme A reductase (Homo sapiens, UniProt P04035).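 Also: enzyme inhibition assay of HMG-CoA reductase using radiolabeled [14C]HMG-CoA as substrate; in other assays of this panel Not Active means under 50% inhibition at 10 µM.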
T2 sequence (P04035 whole entry): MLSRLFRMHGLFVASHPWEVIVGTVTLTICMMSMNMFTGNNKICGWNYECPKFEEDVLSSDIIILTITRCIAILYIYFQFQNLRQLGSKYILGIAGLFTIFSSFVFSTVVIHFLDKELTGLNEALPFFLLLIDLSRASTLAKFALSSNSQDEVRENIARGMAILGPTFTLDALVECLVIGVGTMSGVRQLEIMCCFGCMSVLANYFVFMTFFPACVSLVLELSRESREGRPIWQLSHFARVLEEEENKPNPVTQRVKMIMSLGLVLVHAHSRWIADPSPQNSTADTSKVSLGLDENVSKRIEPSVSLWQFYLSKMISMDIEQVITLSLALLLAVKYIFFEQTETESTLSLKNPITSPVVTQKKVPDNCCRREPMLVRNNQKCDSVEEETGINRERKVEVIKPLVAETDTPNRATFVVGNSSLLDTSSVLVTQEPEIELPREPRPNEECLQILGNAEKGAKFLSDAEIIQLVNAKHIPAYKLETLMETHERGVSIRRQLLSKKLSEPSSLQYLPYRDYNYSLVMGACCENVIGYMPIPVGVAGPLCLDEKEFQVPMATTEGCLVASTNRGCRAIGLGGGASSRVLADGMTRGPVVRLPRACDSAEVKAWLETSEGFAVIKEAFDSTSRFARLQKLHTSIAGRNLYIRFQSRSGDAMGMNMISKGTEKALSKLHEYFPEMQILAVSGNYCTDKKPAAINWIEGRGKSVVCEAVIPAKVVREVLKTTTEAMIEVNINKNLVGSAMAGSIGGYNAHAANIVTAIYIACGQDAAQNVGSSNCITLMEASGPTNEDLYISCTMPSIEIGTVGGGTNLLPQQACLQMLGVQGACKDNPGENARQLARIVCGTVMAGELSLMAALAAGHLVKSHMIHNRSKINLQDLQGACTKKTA
Details: species or system Escherichia coli.

The nature of assay [8]: DRUGMATRIX: Platelet-Derived Growth Factor (PDGF) radioligand binding (ligand: [125I] PDGF). Format: cell-based. The note with it: nih3t3; Not Active = under 50% inhibition at 10 µM.
In another assay the target is Mu-type opioid receptor (Homo sapiens, UniProt P35372). Briefly: DRUGMATRIX: Opiate mu (OP3, MOP) radioligand binding (ligand: [3H] Diprenorphine). Format: cell membranes, CHO-K1, Membrane. As to conditions: Not Active = under 50% inhibition at 10 µM.
Chain of Mu-type opioid receptor (P35372 whole entry): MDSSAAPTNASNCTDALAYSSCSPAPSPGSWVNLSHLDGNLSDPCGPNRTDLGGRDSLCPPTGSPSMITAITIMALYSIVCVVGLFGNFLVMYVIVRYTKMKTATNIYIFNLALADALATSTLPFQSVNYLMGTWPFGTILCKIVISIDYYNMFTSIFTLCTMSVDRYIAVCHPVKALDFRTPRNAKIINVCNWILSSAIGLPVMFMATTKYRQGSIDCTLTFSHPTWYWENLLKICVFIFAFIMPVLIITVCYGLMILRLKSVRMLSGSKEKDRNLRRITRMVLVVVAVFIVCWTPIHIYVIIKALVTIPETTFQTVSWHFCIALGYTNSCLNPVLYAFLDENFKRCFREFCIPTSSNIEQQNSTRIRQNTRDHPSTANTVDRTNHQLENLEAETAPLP

Chain of Prostaglandin G/H synthase 1 (P23219 whole entry): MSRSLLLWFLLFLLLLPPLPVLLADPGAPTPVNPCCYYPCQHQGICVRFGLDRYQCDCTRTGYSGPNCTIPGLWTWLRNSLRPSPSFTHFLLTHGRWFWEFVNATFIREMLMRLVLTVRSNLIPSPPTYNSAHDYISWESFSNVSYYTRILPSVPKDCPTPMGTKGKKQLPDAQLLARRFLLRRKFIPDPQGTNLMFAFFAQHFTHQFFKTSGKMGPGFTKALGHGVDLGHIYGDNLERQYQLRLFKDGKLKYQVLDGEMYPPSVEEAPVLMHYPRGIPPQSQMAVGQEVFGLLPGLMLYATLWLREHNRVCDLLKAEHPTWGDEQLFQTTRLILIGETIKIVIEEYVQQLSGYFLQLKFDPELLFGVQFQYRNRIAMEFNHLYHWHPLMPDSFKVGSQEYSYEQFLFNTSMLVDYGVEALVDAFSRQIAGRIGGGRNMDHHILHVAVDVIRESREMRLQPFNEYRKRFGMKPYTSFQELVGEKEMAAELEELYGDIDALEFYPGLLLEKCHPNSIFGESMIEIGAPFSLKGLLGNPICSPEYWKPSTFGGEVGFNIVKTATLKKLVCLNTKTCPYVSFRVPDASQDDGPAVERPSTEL

Turning to `CC(C)(C)NC(=O)[C@@H]1C[C@@H]2CCCC[C@@H]2CN1C[C@@H](O)[C@H](Cc1ccccc1)NC(=O)[C@H](CC(N)=O)NC(=O)c1ccc2ccccc2n1`, the IC50 result in assay [1], in assay [2], in [3], in assay [4], in assay [5] (platelet) and in assay [6] was “Not Active” throughout. Besides, the IC50 entry in assay [7] and in assay [8] was “Not Active” each time. The Ki entry in assay [2], in [3], in [4] and in assay [8] was “Not Active” throughout.
As to `CN1CCN(CCCN2c3ccccc3Sc3ccc(Cl)cc32)CC1` [PROCHLORPERAZINE], the concentration for half-maximal inhibition (IC50) entry (in [1]; in [5] (platelet); in assay [6]; in assay [7]; on Mu-type opioid receptor (cho-k1)) was “Not Active” throughout.
On to `N[C@@H](Cc1ccc(N(CCCl)CCCl)cc1)C(=O)O`, for which the IC50 result in assay [1], in assay [2], in assay [3], in assay [4], in [5] (platelet) and in assay [6] was “Not Active” each time. In addition, the IC50 result in [7] and in assay [8] was “Not Active” each time. Besides, the Ki result in assay [2], in assay [3], in [4] and in assay [8] was “Not Active” each time.
For the compound `CCCOc1ccccc1-c1nc2nn[nH]c2c(=O)[nH]1` [ZAPRINAST], the IC50 result in assay [2], in assay [3], in assay [4], in assay [5] (platelet), in assay [6] and in assay [7] was “Not Active” throughout. For the same compound, the IC50 entry (in assay [8]; at Mu-type opioid receptor (cho-k1)) was “Not Active” each time. The Ki entry in assay [2], in assay [3], in [4] and in [8] was “Not Active” each time.
With `Cc1nc2n(c(=O)c1CCN1CCC(c3noc4cc(F)ccc34)CC1)CCCC2` [RISPERIDONE], the IC50 result (in assay [1]; in assay [5] (platelet); in assay [6]; in [7]; at Mu-type opioid receptor (cho-k1)) was “Not Active” throughout.
`N[C@@H](Cc1cc(I)c(Oc2ccc(O)c(I)c2)c(I)c1)C(=O)O` [LIOTHYRONINE]: the IC50 result (in [1]; in assay [5] (platelet); in assay [6]; in [7]; at Mu-type opioid receptor (cho-k1)) was “Not Active” in each case.
As to `OCCN(CCO)c1nc(N2CCCCC2)c2nc(N(CCO)CCO)nc(N3CCCCC3)c2n1` [DIPYRIDAMOLE], the IC50 entry in [2], in [3], in assay [4], in [5] (platelet), in assay [6] and in assay [7] was “Not Active” throughout. Further, the IC50 result (in assay [8]; at Mu-type opioid receptor (cho-k1)) was “Not Active” throughout. The Ki entry in assay [2], in assay [3], in assay [4] and in assay [8] was “Not Active” each time.
`CSc1ccc(/C=C2/C(C)=C(CC(=O)O)c3cc(F)ccc32)cc1` [SULINDAC SULFIDE]: the IC50 entry in assay [1], in assay [2], in assay [3], in [4], in [6] and in [7] was “Not Active” in each case. Also, the IC50 entry was “Not Active” in assay [8] and 33.7 µM at Mu-type opioid receptor (read-out: IC50). The Ki entry in assay [2] was “Not Active”; in assay [3], “Not Active”; in assay [4], “Not Active”; in assay [8], “Not Active”; at Mu-type opioid receptor, 13.7 µM.
Consider `CCCCc1oc2ccccc2c1C(=O)c1cc(I)c(OCCN(CC)CC)c(I)c1` [AMIODARONE], for which the half-inhibitory concentration (IC50) entry in assay [1], in assay [5] (platelet), in [6] and in assay [7] was “Not Active” in each case.
Consider `CC(C)N1CCN(c2ccc(OCC3COC(Cn4cncn4)(c4ccc(Cl)cc4Cl)O3)cc2)CC1` (stereo unspecified) [TERCONAZOLE], for which the IC50 entry (in assay [1]; in [4]; in assay [5] (platelet); in [6]; in [7]; at Mu-type opioid receptor (cho-k1)) was “Not Active” each time. In addition, the inhibitory constant (Ki) entry in [4] is recorded as “Not Active”.
For `CC[C@@H](CO)NC(=O)[C@@H]1C=C2c3cccc4[nH]cc(c34)C[C@H]2N(C)C1` [METHYLERGONOVINE], the 50% inhibitory concentration (IC50) result in [1], in [2], in assay [3], in assay [4], in [5] (platelet) and in assay [6] was “Not Active” each time. Also, the IC50 entry in assay [7] and in assay [8] was “Not Active” in each case. The inhibition constant (Ki) entry in assay [2], in assay [3], in assay [4] and in assay [8] was “Not Active” in each case.
Regarding `CC/C(=C(\c1ccccc1)c1ccc(OCCN(C)C)cc1)c1ccccc1` [TAMOXIFEN], the IC50 entry in [1] is “Not Active”; in assay [5] (read-out: IC50), 4.39 µM; in [6], “Not Active”; in [7], “Not Active”; on Mu-type opioid receptor (read-out: IC50), 17.6 µM. The compound further displayed a Ki at Mu-type opioid receptor of 7.14 µM.
As for SODIUM NITROPRUSSIDE, the IC50 result in assay [1], in assay [2], in assay [3], in assay [4], in assay [5] (platelet) and in assay [6] was “Not Active” throughout. Also, the IC50 entry in assay [7] and in assay [8] was “Not Active” each time. The Ki entry in assay [1], in assay [2], in assay [3], in [4], in assay [5] (platelet) and in assay [6] was “Not Active” each time. Further, the Ki entry in assay [7] and in assay [8] was “Not Active” each time.
